# Test results as given in ChEMBL document CHEMBL3044818, “Fungicide resistance status in French populations of the wheat eyespot fungi Oculimacula acuformis and Oculimacula yallundae” (Pest Manag Sci, 2013).
# How the values were obtained:
# Oculimacula yallundae [1] = experiment: Resistance index, ratio of EC50 for sterol 14alpha-demethylation inhibitor-resistant Oculimacula yallundae TriR2 to EC50 for wild type Oculimacula yallundae TriS by mycelial growth inhibition assay; type: functional
# Oculimacula yallundae [2] = experiment: Resistance index, ratio of EC50 for sterol 14alpha-demethylation inhibitor-resistant Oculimacula yallundae TriR2 to EC50 for sterol 14alpha-demethylation inhibitor-resistant Oculimacula yallundae TriR1 by mycelial growth inhibition assay; type: functional
# Oculimacula yallundae [3] = experiment: Resistance index, ratio of EC50 for sterol 14alpha-demethylation inhibitor-resistant Oculimacula yallundae MDR to EC50 for wild type Oculimacula yallundae TriS by mycelial growth inhibition assay; type: functional
# Oculimacula yallundae [4] = experiment: Resistance index, ratio of EC50 for prochloraz-resistant Oculimacula yallundae isolate ProR1 to EC50 for prochloraz-susceptible Oculimacula yallundae isolate ProS by germ tube elongation inhibition assay; type: functional
# Oculimacula yallundae [5] = experiment: Fungicidal activity against prochloraz-susceptible Oculimacula yallundae isolate ProS assessed as inhibition of germ tube elongation incubated at 19 degC in dark for 48 hr; type: functional, organism-based
# Oculimacula yallundae [6] = experiment: Resistance index, ratio of EC50 for sterol 14alpha-demethylation inhibitor-resistant Oculimacula yallundae MDR to EC50 for sterol 14alpha-demethylation inhibitor-resistant Oculimacula yallundae TriR1 by germ tube elongation assay; type: functional
# Oculimacula yallundae [7] = experiment: Resistance index, ratio of EC50 for sterol 14alpha-demethylation inhibitor-resistant Oculimacula yallundae MDR to EC50 for wild type Oculimacula yallundae TriS by germ tube elongation assay; type: functional
# Oculimacula yallundae [8] = experiment: Resistance index, ratio of EC50 for sterol 14alpha-demethylation inhibitor-resistant Oculimacula yallundae TriR2 to EC50 for sterol 14alpha-demethylation inhibitor-resistant Oculimacula yallundae TriR1 by germ tube elongation assay; type: functional
# Oculimacula yallundae [9] = experiment: Resistance index, ratio of EC50 for sterol 14alpha-demethylation inhibitor-resistant Oculimacula yallundae TriR2 to EC50 for wild type Oculimacula yallundae TriS by germ tube elongation assay; type: functional
# Oculimacula yallundae [10] = experiment: Resistance index, ratio of EC50 for sterol 14alpha-demethylation inhibitor-resistant Oculimacula yallundae TriR1 to EC50 for wild type Oculimacula yallundae TriS by germ tube elongation assay; type: functional
# Oculimacula yallundae [11] = experiment: Resistance index, ratio of EC50 for sterol 14alpha-demethylation inhibitor-resistant Oculimacula yallundae MDR to EC50 for sterol 14alpha-demethylation inhibitor-resistant Oculimacula yallundae TriR1 by mycelial growth inhibition assay; type: functional
# Oculimacula yallundae [12] = experiment: Resistance index, ratio of EC50 for sterol 14alpha-demethylation inhibitor-resistant Oculimacula yallundae TriR1 to EC50 for wild type Oculimacula yallundae TriS by mycelial growth inhibition assay; type: functional
# [13] = Selectivity index, ratio of EC50 for Oculimacula acuformis to EC50 for Oculimacula yallundae in presence of 10 g glucose by mycelial growth inhibition assay; type: functional
# Oculimacula yallundae [14] = experiment: Fungicidal activity against Oculimacula yallundae assessed as inhibition of mycelial growth in presence of 10 g glucose incubated at 19 degC in dark for 4 weeks; type: functional, organism-based; settings: 672 h
# Oculimacula acuformis [15] = experiment: Fungicidal activity against Oculimacula acuformis assessed as inhibition of mycelial growth in presence of 10 g glucose incubated at 19 degC in dark for 4 weeks; type: functional, organism-based; settings: 672 h
# [16] = Selectivity index, ratio of EC50 for Oculimacula acuformis to EC50 for Oculimacula yallundae by germ tube elongation inhibition assay; type: functional
# Oculimacula yallundae [17] = experiment: Fungicidal activity against Oculimacula yallundae assessed as inhibition of germ tube elongation incubated at 19 degC in dark for 48 hr; type: functional, organism-based
# Oculimacula acuformis [18] = experiment: Fungicidal activity against Oculimacula acuformis assessed as inhibition of germ tube elongation incubated at 19 degC in dark for 48 hr; type: functional, organism-based
# Oculimacula yallundae [19] = experiment: Resistance index, ratio of EC50 for prochloraz-resistant Oculimacula yallundae isolate ProR2 to EC50 for prochloraz-susceptible Oculimacula yallundae isolate ProS by germ tube elongation inhibition assay; type: functional
# Oculimacula yallundae [20] = experiment: Resistance index, ratio of EC50 for prochloraz-resistant Oculimacula yallundae isolate ProR2 to EC50 for prochloraz-susceptible Oculimacula yallundae isolate ProS by mycelial growth inhibition assay; type: functional
# Oculimacula yallundae [21] = experiment: Resistance index, ratio of EC50 for prochloraz-resistant Oculimacula yallundae isolate ProR1 to EC50 for prochloraz-susceptible Oculimacula yallundae isolate ProS by mycelial growth inhibition assay; type: functional
# Oculimacula yallundae [22] = experiment: Fungicidal activity against prochloraz-susceptible Oculimacula yallundae isolate ProS assessed as inhibition of mycelial growth in presence of 10 g glucose incubated at 19 degC in dark for 4 weeks; type: functional, organism-based; settings: 672 h
SMILES,Ratio EC50 (Oculimacula yallundae [1]),Ratio EC50 (Oculimacula yallundae [2]),Ratio EC50 (Oculimacula yallundae [3]),Ratio EC50 (Oculimacula yallundae [4]),EC50 (Oculimacula yallundae [5]),Ratio EC50 (Oculimacula yallundae [6]),Ratio EC50 (Oculimacula yallundae [7]),Ratio EC50 (Oculimacula yallundae [8]),Ratio EC50 (Oculimacula yallundae [9]),Ratio EC50 (Oculimacula yallundae [10]),Ratio EC50 (Oculimacula yallundae [11]),Ratio EC50 (Oculimacula yallundae [12]),Ratio EC50 [13],EC50 (Oculimacula yallundae [14]),EC50 (Oculimacula acuformis [15]),Ratio EC50 [16],EC50 (Oculimacula yallundae [17]),EC50 (Oculimacula acuformis [18]),Ratio EC50 (Oculimacula yallundae [19]),also measured
CC(C)(C)C(O)(CCc1ccc(Cl)cc1)Cn1cncn1 (stereo unspecified) [TEBUCONAZOLE],30,1.5,25,3,0.5 µg/mL,4,267,1.5,100,67,1.3,20,20,0.2 µg/mL,4 µg/mL,17,0.03 µg/mL,0.5 µg/mL,5,–
Cc1cc(C2CC2)nc(Nc2ccccc2)n1 [CYPRODINIL],–,–,–,–,–,13,13,1,1,1,–,–,0.12,0.5 µg/mL,0.06 µg/mL,1,0.004 µg/mL,0.004 µg/mL,–,–
CC1(C(=O)Nc2ccc(O)c(Cl)c2Cl)CCCCC1 [FENHEXAMID],1.2,0.8,2.5,–,–,28,33,1,1.2,1.2,1.7,1.5,0.8,0.4 µg/mL,0.32 µg/mL,0.8,0.06 µg/mL,0.05 µg/mL,–,–
Fc1ccc([C@]2(Cn3cncn3)O[C@H]2c2ccccc2Cl)cc1 (relative stereo) [EPOXICONAZOLE],3.3,1,6.7,2,0.3 µg/mL,5,150,2,60,30,2,3.3,2,0.15 µg/mL,0.3 µg/mL,15,0.02 µg/mL,0.3 µg/mL,3,Ratio EC50 (Oculimacula yallundae [20]): 5; Ratio EC50 (Oculimacula yallundae [21]): 3.3; EC50 (Oculimacula yallundae [22]): 0.3 µg/mL
OC(Cc1ccccc1Cl)(Cn1nc[nH]c1=S)C1(Cl)CC1 (stereo unspecified) [PROTHIOCONAZOLE],2,0.8,4.5,1.2,0.06 µg/mL,30,38,1,1.3,1.3,1.8,2.5,1.3,0.4 µg/mL,0.5 µg/mL,0.8,0.08 µg/mL,0.06 µg/mL,1.5,Ratio EC50 (Oculimacula yallundae [20]): 2.4; Ratio EC50 (Oculimacula yallundae [21]): 1.6; EC50 (Oculimacula yallundae [22]): 0.5 µg/mL
CCCOC/C(=N\c1ccc(Cl)cc1C(F)(F)F)n1ccnc1 [TRIFLUMIZOLE],–,–,–,0.1,9 µg/mL,1.1,243,0.3,71,214,–,–,> 30,0.8 µg/mL,> 25 µg/mL,129,0.07 µg/mL,9 µg/mL,0.8,–
C[Si](Cn1cncn1)(c1ccc(F)cc1)c1ccc(F)cc1 [FLUSILAZOLE],–,–,–,2.5,0.2 µg/mL,–,–,–,–,–,–,–,6.7,0.06 µg/mL,0.4 µg/mL,25,0.008 µg/mL,0.2 µg/mL,5,Ratio EC50 (Oculimacula yallundae [20]): 6.2; Ratio EC50 (Oculimacula yallundae [21]): 5; EC50 (Oculimacula yallundae [22]): 0.4 µg/mL
CCCN(CCOc1c(Cl)cc(Cl)cc1Cl)C(=O)n1ccnc1 [PROCHLORAZ],30,20,3,63,0.004 µg/mL,71,100,171,240,1.4,2,1.5,0.8,0.05 µg/mL,0.04 µg/mL,0.8,0.005 µg/mL,0.004 µg/mL,75,Ratio EC50 (Oculimacula yallundae [20]): 25; Ratio EC50 (Oculimacula yallundae [21]): 25; EC50 (Oculimacula yallundae [22]): 0.04 µg/mL
Cc1cc(C)nc(Nc2ccccc2)n1 [PYRIMETHANIL],–,–,–,–,–,12,12,1.2,1.2,1,–,–,–,–,–,–,0.1 µg/mL,–,–,–
Cc1cccc(N(C)C(=S)Oc2ccc3ccccc3c2)c1 [TOLNAFTATE],–,–,–,–,–,>25,>30,0.8,1,1.3,–,–,–,–,–,–,0.3 µg/mL,–,–,–
COc1cc(C)c(C(=O)c2c(OC)ccc(Br)c2C)c(OC)c1OC [METRAFENONE],1.3,1.3,1.1,–,–,–,–,–,–,–,1.1,1,0.1,0.8 µg/mL,0.08 µg/mL,–,> 25 µg/mL,> 25 µg/mL,–,–
CC(C1CC1)C(O)(Cn1cncn1)c1ccc(Cl)cc1 (stereo unspecified) [CYPROCONAZOLE],17,0.7,20,0.5,3 µg/mL,1,160,0.6,100,160,0.9,23,40,0.3 µg/mL,12 µg/mL,60,0.05 µg/mL,3 µg/mL,0.8,–
CC(C)CC(C)c1sccc1NC(=O)c1cn(C)nc1C(F)(F)F (stereo unspecified) [PENTHIOPYRAD],–,–,–,–,–,12,12,1,1,1,–,–,–,–,–,–,0.02 µg/mL,–,–,–
COC(=O)Nc1nc2ccccc2[nH]1 [CARBENDAZIM],–,–,–,–,–,–,–,–,–,–,–,–,1.3,0.03 µg/mL,0.04 µg/mL,1,0.04 µg/mL,0.04 µg/mL,–,–
CC1=C(C(=O)Nc2ccccc2)SCCO1 [CARBOXIN],–,–,–,–,–,1.4,1.4,1.2,1.2,1,–,–,–,–,–,–,2.5 µg/mL,–,–,–
Clc1ccc(C2(Cn3cncn3)CC(Br)CO2)c(Cl)c1 (stereo unspecified) [BROMUCONAZOLE],10,2,10,0.6,0.8 µg/mL,2.5,83,1.2,40,33,2,5,8.5,0.2 µg/mL,1.5 µg/mL,27,0.03 µg/mL,0.8 µg/mL,1,Ratio EC50 (Oculimacula yallundae [20]): 0.5; Ratio EC50 (Oculimacula yallundae [21]): 0.3; EC50 (Oculimacula yallundae [22]): 1.5 µg/mL
CC(Cc1ccc(C(C)(C)C)cc1)CN1C[C@@H](C)O[C@@H](C)C1 (stereo partly specified) [FENPROPIMORPH],–,–,–,–,–,–,–,–,–,–,–,–,0.12,15 µg/mL,1.8 µg/mL,0.15,0.4 µg/mL,0.06 µg/mL,–,–
CN(C/C=C/C#CC(C)(C)C)Cc1cccc2ccccc12 [TERBINAFINE],–,–,–,–,–,–,–,–,–,–,–,–,0.8,0.3 µg/mL,0.25 µg/mL,1.3,0.008 µg/mL,0.01 µg/mL,–,–
